Experimental data: the RepoRT retention time repository (doi:10.1038/s41586-021-03707-9)

test: Waters ACQUITY UPLC BEH C18, 100 × 2.1 mm, 1.7 µm, 40 °C, 0.28 mL/min, estimated dead time 0.63 min; A: water + 6.5 mM ammonium hydroxide; B: methanol + 6.5 mM ammonium hydroxide; gradient (min/%B) 0/0.5 4/70 4.5/98 5.4/98; settings: stereoisomer not certain

Point of comparison: `NC(Cc1ccccc1)C(=O)O` (configuration not stated), LC retention time 2.37 min. Against it:
- CC(C)(CO)C(O)C(=O)NCCC(=O)O (configuration not stated) — within 1.5-fold, 1.7 min
- O=C(O)Cc1ccccc1O — within 1.5-fold, 2.46 min
- COc1ccc2[nH]cc(CCN)c2c1 — 1.5-fold higher, 3.64 min
- CNC(=C[N+](=O)[O-])NCCSCc1csc(CN(C)C)n1 — 1.6-fold higher, 3.86 min
- CC(=O)Oc1cccc(O)c1 — within 1.5-fold, 3.06 min
- O=C(O)C(O)c1ccccc1 (configuration not stated) — within 1.5-fold, 1.59 min
- N#CCc1c[nH]c2ccccc12 — 1.9-fold higher, 4.53 min
- O=C(C=Cc1ccc(O)c(O)c1)OC(Cc1ccc(O)c(O)c1)C(=O)O (configuration not stated) — within 1.5-fold, 3.14 min
- NC(N)=Nc1nc(CSCCC(N)=NS(N)(=O)=O)cs1 — within 1.5-fold, 3.07 min
- [2H]C([2H])([2H])C([2H])([2H])C([2H])([2H])C([2H])([2H])C([2H])([2H])C([2H])([2H])C([2H])([2H])C(=O)O — 2-fold higher, 4.67 min
- Cc1cn(C2CC(O)C(COP(=O)(O)OP(=O)(O)OC3OC(CO)C(O)C(O)C3O)O2)c(=O)[nH]c1=O (configuration not stated) — 2.6-fold lower, 0.923 min
- O=C(O)c1cc(O)cc(O)c1 — 2.8-fold lower, 0.832 min
- O=C(O)C(=O)Cc1c[nH]c2ccccc12 — within 1.5-fold, 3 min
- COC1OC(CO)C(O)C(O)C1O (configuration not stated) — 2.4-fold lower, 0.979 min
- CC(C)CC(=O)C(=O)O — within 1.5-fold, 2.48 min
- CCCCCCC(=O)O — 1.7-fold higher, 4.06 min
- NC(=O)CCC(N)C(=O)O (configuration not stated) — 3.1-fold lower, 0.764 min
- OCc1cccc(O)c1 — within 1.5-fold, 2.93 min
- O=Cc1c[nH]c2ccccc12 — 1.8-fold higher, 4.19 min
- O=C(O)c1cccc(O)c1O — 1.5-fold lower, 1.56 min
- CSCCC(O)C(=O)O (configuration not stated) — 1.6-fold lower, 1.5 min
- CCCC(=O)Nc1ccc(OCC(O)CNC(C)C)c(C(C)=O)c1 (configuration not stated) — 2-fold higher, 4.82 min
- CC(C)=CC(=O)SCCNC(=O)CCNC(=O)C(O)C(C)(C)COP(=O)(O)OP(=O)(O)OCC1OC(n2cnc3c(N)ncnc32)C(O)C1OP(=O)(O)O (configuration not stated) — within 1.5-fold, 2.95 min
- CCCC(N)C(=O)O (configuration not stated) — 2.3-fold lower, 1.02 min
- O=C(CO)C(O)C(O)C(O)CO (configuration not stated) — 2.9-fold lower, 0.816 min
- NC(CO)C(=O)O (configuration not stated) — 3.1-fold lower, 0.761 min
- CC=CC=CC(=O)O — within 1.5-fold, 2.28 min
- OCC1OC(Oc2ccc(O)cc2)C(O)C(O)C1O (configuration not stated) — within 1.5-fold, 1.81 min
- O=c1[nH]cc(CO)c(=O)[nH]1 — 2.8-fold lower, 0.855 min
- CC([NH3+])C(=O)NCC(=O)[O-] (configuration not stated) — within 1.5-fold, 2.68 min
- CC(=O)C1C(=O)C=C(C)OC1=O (configuration not stated) — within 1.5-fold, 2.04 min
- COc1cc(C=O)ccc1O — within 1.5-fold, 2.51 min
- O=C(O)Cc1cccc(O)c1 — within 1.5-fold, 1.79 min
- CC(CCC(=O)O)C1CCC2C3C(O)CC4CC(O)CCC4(C)C3CC(O)C12C (configuration not stated) — 2.1-fold higher, 4.99 min
- O=c1[nH]c(=O)c2[nH]cnc2[nH]1 — 2.4-fold lower, 0.977 min
- CCCCC1=NC2(CCCC2)C(=O)N1Cc1ccc(-c2ccccc2-c2nn[nH]n2)cc1 — 2.2-fold higher, 5.32 min
- Nc1nc2c(ncn2C2CC(O)C(COP(=O)(O)O)O2)c(=O)[nH]1 (configuration not stated) — 2.6-fold lower, 0.923 min
- O=C(O)CCc1ccccc1O — within 1.5-fold, 2.93 min
- CC(=O)CCC(=O)O — 2.7-fold lower, 0.87 min
- O=C(O)CNC(=O)c1ccccc1O — within 1.5-fold, 2.48 min
- O=S(=O)(O)CCO — 2.7-fold lower, 0.866 min
- O=C(O)CCc1ccc(O)cc1 — within 1.5-fold, 2.5 min
- O=C(O)Cc1ccc(O)c(O)c1 — 2.2-fold lower, 1.1 min
- CNCC(=O)O — 3-fold lower, 0.778 min
- NCC(N)C(=O)O (configuration not stated) — 3.1-fold lower, 0.768 min
- NC(Cc1cnc[nH]1)C(=O)O (configuration not stated) — 2.8-fold lower, 0.849 min
- O=Cc1cccc(O)c1 — within 1.5-fold, 3.55 min
- CCC(C(=O)O)c1ccccc1 (configuration not stated) — 1.6-fold higher, 3.74 min
- NCC(O)CCC(N)C(=O)O (configuration not stated) — 3-fold lower, 0.78 min
- CC(=O)NC(CCC(N)=O)C(=O)O (configuration not stated) — 2.8-fold lower, 0.835 min
- NC(CCSSCCC(N)C(=O)O)C(=O)O (configuration not stated) — 2.6-fold lower, 0.929 min
- O=C(O)C1CCC(O)CC1 (configuration not stated) — 3.1-fold lower, 0.776 min
- O=C(CO)C(OC1OC(CO)C(O)C(O)C1O)C(O)C(O)CO (configuration not stated) — 2.9-fold lower, 0.828 min
- O=C(CCc1ccc(O)cc1)c1c(O)cc(O)cc1OC1OC(CO)C(O)C(O)C1O (configuration not stated) — within 1.5-fold, 3.5 min
- CC(C)C(N)C(=O)O (configuration not stated) — 2.4-fold lower, 1 min
- NC(N)=NCCCC(N)C(=O)O (configuration not stated) — 2.8-fold lower, 0.845 min
- CC(=O)OCc1ccccc1 — within 1.5-fold, 2.78 min
- CCCCCCCC(=O)O — 2-fold higher, 4.74 min
- O=C(O)c1cc(O)ccc1O — within 1.5-fold, 1.63 min
- OCCNCCO — 2.5-fold lower, 0.945 min
- O=S(=O)(O)c1cccc2cccc(Nc3ccccc3)c12 — 2.2-fold higher, 5.12 min
- NC(CCO)C(=O)O (configuration not stated) — 3.1-fold lower, 0.762 min
- O=C(O)c1ccc(O)c(O)c1 — 3-fold lower, 0.797 min
- Cc1ccc(OS(=O)(=O)O)cc1 — within 1.5-fold, 2.9 min
- Nc1ncnc2c1ncn2C1OC(COP(=O)(O)OP(=O)(O)OCC2OC(O)C(O)C2O)C(O)C1O (configuration not stated) — 2.6-fold lower, 0.924 min
- OCC1OC(OCC2OC(OCC3OC(OC4(CO)OC(CO)C(O)C4O)C(O)C(O)C3O)C(O)C(O)C2O)C(O)C(O)C1O (configuration not stated) — 2.6-fold lower, 0.928 min
